In PMC7717616, “A nanobody-derived mimotope against VEGF inhibits cancer angiogenesis” (Journal of Enzyme Inhibition and Medicinal Chemistry, 2020):
Read-outs that look alike come from different tables or passages of the source. Square brackets hold non-standard residues; d marks the D form. Ends that are not written are not given here. Abu = CC[C@H](N)C(=O)O

Assays:
HUVEC cells [1] = experiment: Tube formation assay with HUVEC cells and VEGF; assay type: cell-based; settings: HUVEC on Geltrex, nanobody/peptide 1000 nM, VEGF 50 ng/ml, 4–8 h, 37 °C; control with VEGF alone formed complete tubes; Image J
Description: About 50 µl of Geltrex LDEV lacking growth factor (Gibco, Invitrogen) were added to 96-well plate followed by a 30–60 min period of incubation at a temperature of 37 °C. One thousands nM of nanobody and peptide were added in two separate microtubes. Then, 50 ng/ml of VEGF were added to the tubes and incubated at a temperature of 37 °C for 1 h. Bevacizumab was as positive control. About 10^4 of HUVEC cells with DMEM culture media plus each microtube’s mixture were seeded in 96-well plates containing Geltrex. Plates were incubated for 4–8 h (temperature of 37 °C in the presence of 5% CO2). After incubation, cells were assessed according to their conditions of tube formation, and tube-like structures analysed by Image J software.
(§1) Prism 5.0 Software (GraphPad, San Diego, CA) was used for statistical analysis. T test was performed for comparison between two groups. The statistical were considered significant when p values < .05.

HUVEC cells [2] = experiment: MTT assay, inhibition of HUVEC proliferation; assay type: cell-based; settings: for IC50: HUVEC growth; for inhibition of cell growth, 24 h / inhibition of cell growth, 48 h: 1000 nM
Description: The HUVEC cell line was purchased from the Pasteur Institute of Iran and was transferred in DMEM media enriched with 10% Foetal Bovine Serum (FBS, Gibco). The cells were then added into T25 cell culture flasks and incubated at a temperature of 37 °C in the presence of 5% CO2. After 3–5 days, confluency of the cells was assessed. At 90% of confluency, cells were removed from the flask by trypsin treatment until their use in following experiments.
About 10^4 of HUVEC cells were suspended in […] of culture media enriched with 2% FBS, and were then transferred to 96-well plates, followed by an incubation at a temperature of 37 °C for 2 h. After incubation at a temperature of 37 °C in the presence of 5% CO2, various concentrations of nanobody and peptide (0–1000 nM) were added to cells, followed by an incubation for 24 and 48 h, respectively. Bevacizumab was used as positive control. After incubation, an MTT (3–(4,5-Dimethylthiazol-2-yl)-2,5-Diphenyltetrazolium Bromide) solution was added to each well and incubated for 4 h. Thereafter, MTT was removed and DMSO (dimethylsulfoxide) was added to the wells. Plates were incubated on shaker for 30 min, and optical densities (OD) were then measured using a spectrophotometer (Epoch).
as §1

[3] = 0–1000 nM, 24 h, read-out: IC50 (24 h)
[4] = 0–1000 nM, 48 h, read-out: IC50 (48 h)

Substance | tube-like structures formed (HUVEC cells [1]) [%] | IC50 (HUVEC cells [2]; [3]) [nM] | IC50 (HUVEC cells [2]; [4]) [nM] | inhibition of cell growth, 24 h (HUVEC cells [2]; HUVEC, 24 h) [%] | inhibition of cell growth, 48 h (HUVEC cells [2]; HUVEC, 48 h) [%] | dose dependence of inhibition of cellular proliferation (in words) (HUVEC cells [2]; HUVEC, 0–1000 nM) | time dependence of effect (in words) (HUVEC cells [2]; HUVEC, 24 and 48 h)
Bevacizumab: Bevacizumab (positive control) | 20 | 200 | 150 | 87 | 97 |  | 
YY[Abu]AARAWSPYSSTVDAGDFRYWGQ-NH2 [peptide, designed 25-mer peptide from the CDR3 region of the VEGF nanobody] | 35 | 350 | 200 | 77 | 91 | dose dependent | time dependent
